Measurements reported in the supplement of paper PMC10307832.

Columns and labels:
Assay in all cases: relative viability (nuclei count vs DMSO), 5 days (fraction); higher = more cells survive
[1] = tested on: EPLC-272H
Outline: (§1)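 One day after seeding in 1536-well plates, lung cancer cell lines were dosed by pin tool. Dosing was either single-drug or a fixed anchor-drug dose plus five library-drug doses (not always all listed) in √10 steps. After 5 days, nuclei were stained in one fix-and-stain step and counted on 4× images, and relative viability is the nuclei count of treated wells over that of vehicle wells, given as the median of duplicate plates.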

[2] = tested on: H3255
Outline: as §1

[3] = tested on: HARA
Outline: as §1

[4] = tested on: LC-2-ad
Outline: as §1

[5] = tested on: LOU-NH91
Outline: as §1

[6] = tested on: NCI-H1650
Outline: as §1

[7] = tested on: NCI-H1651
Outline: as §1

[8] = tested on: NCI-H1975
Outline: as §1

[9] = tested on: NCI-H2009
Outline: as §1

[10] = tested on: NCI-H2023
Outline: as §1

[11] = tested on: NCI-H2085
Outline: as §1

[12] = tested on: NCI-H2087
Outline: as §1

[13] = tested on: NCI-H2170
Outline: as §1

[14] = tested on: NCI-H2228
Outline: as §1

[15] = tested on: NCI-H23
Outline: as §1

[16] = tested on: NCI-H441
Outline: as §1

[17] = tested on: NCI-H650
Outline: as §1

[18] = tested on: NCI-H727
Outline: as §1

[19] = tested on: NCI-H838
Outline: as §1

[20] = tested on: PC-3 [JPC-3]
Outline: as §1

[21] = tested on: SW 1573
Outline: as §1

[22] = tested on: UMC-11
Outline: as §1

CN1CCN(CCOc2cc(OC3CCOCC3)c3c(Nc4c(Cl)ccc5c4OCO5)ncnc3c2)CC1 [Saracatinib] + C[C@@H](Oc1cc(-c2cnn(C3CCNCC3)c2)cnc1N)c1c(Cl)ccc(F)c1Cl [Crizotinib] (partner 1 µM)
relative viability ([1]; first compound 0.02 µM): 0.96 | relative viability ([1]; first compound 0.2 µM): 0.826 | relative viability ([1]; first compound 0.6325 µM): 0.779 | relative viability ([1]; first compound 2 µM): 0.729 | relative viability ([2]; first compound 0.02 µM): 0.865 | relative viability ([2]; first compound 0.2 µM): 0.952 | relative viability ([2]; first compound 0.6325 µM): 0.664 | relative viability ([2]; first compound 2 µM): 0.269 | relative viability ([3]; first compound 0.02 µM): 1.02 | relative viability ([3]; first compound 0.6325 µM): 0.829 | relative viability ([3]; first compound 2 µM): 0.64 | relative viability ([4]; first compound 0.02 µM): 0.434 | relative viability ([4]; first compound 0.2 µM): 0.41 | relative viability ([4]; first compound 0.6325 µM): 0.513 | relative viability ([4]; first compound 2 µM): 0.371 | relative viability ([5]; first compound 0.02 µM): 0.692 | relative viability ([5]; first compound 0.2 µM): 0.57 | relative viability ([5]; first compound 0.6325 µM): 0.542 | relative viability ([5]; first compound 2 µM): 0.458 | relative viability ([6]; first compound 0.02 µM): 1.03 | relative viability ([6]; first compound 0.2 µM): 0.637 | relative viability ([6]; first compound 0.6325 µM): 0.582 | relative viability ([6]; first compound 2 µM): 0.413 | relative viability ([7]; first compound 0.02 µM): 0.866 | relative viability ([7]; first compound 0.2 µM): 0.802 | relative viability ([7]; first compound 0.6325 µM): 0.923 | relative viability ([7]; first compound 2 µM): 0.751 | relative viability ([8]; first compound 0.02 µM): 1.02 | relative viability ([8]; first compound 0.6325 µM): 0.823 | relative viability ([8]; first compound 2 µM): 0.515 | relative viability ([9]; first compound 0.02 µM): 1.03 | relative viability ([9]; first compound 0.2 µM): 0.756 | relative viability ([9]; first compound 0.6325 µM): 0.896 | relative viability ([9]; first compound 2 µM): 0.691 | relative viability ([10]; first compound 0.02 µM): 0.769 | relative viability ([10]; first compound 0.2 µM): 0.428 | relative viability ([10]; first compound 0.6325 µM): 0.391 | relative viability ([10]; first compound 2 µM): 0.356 | relative viability ([11]; first compound 0.02 µM): 0.763 | relative viability ([11]; first compound 0.2 µM): 0.761 | relative viability ([11]; first compound 0.6325 µM): 0.766 | relative viability ([11]; first compound 2 µM): 0.755 | relative viability ([12]; first compound 0.02 µM): 0.993 | relative viability ([12]; first compound 0.2 µM): 0.697 | relative viability ([12]; first compound 0.6325 µM): 1.07 | relative viability ([12]; first compound 2 µM): 1.02 | relative viability ([13]; first compound 0.02 µM): 1.13 | relative viability ([13]; first compound 0.2 µM): 1.24 | relative viability ([13]; first compound 0.6325 µM): 1.13 | relative viability ([13]; first compound 2 µM): 0.649 | relative viability ([14]; first compound 0.02 µM): 0.477 | relative viability ([14]; first compound 0.2 µM): 0.326 | relative viability ([14]; first compound 0.6325 µM): 0.306 | relative viability ([14]; first compound 2 µM): 0.213 | relative viability ([15]; first compound 0.02 µM): 0.528 | relative viability ([15]; first compound 0.6325 µM): 0.557 | relative viability ([15]; first compound 2 µM): 0.419 | relative viability ([16]; first compound 0.02 µM): 0.95 | relative viability ([16]; first compound 0.2 µM): 0.601 | relative viability ([16]; first compound 0.6325 µM): 0.798 | relative viability ([16]; first compound 2 µM): 0.646 | relative viability ([17]; first compound 0.02 µM): 0.597 | relative viability ([17]; first compound 0.2 µM): 0.643 | relative viability ([17]; first compound 0.6325 µM): 0.639 | relative viability ([17]; first compound 2 µM): 0.622 | relative viability ([18]; first compound 0.02 µM): 0.904 | relative viability ([18]; first compound 0.2 µM): 0.452 | relative viability ([18]; first compound 0.6325 µM): 0.617 | relative viability ([18]; first compound 2 µM): 0.378 | relative viability ([19]; first compound 0.02 µM): 0.818 | relative viability ([19]; first compound 0.2 µM): 0.779 | relative viability ([19]; first compound 0.6325 µM): 0.608 | relative viability ([19]; first compound 2 µM): 0.582 | relative viability ([20]; first compound 0.02 µM): 0.997 | relative viability ([20]; first compound 0.2 µM): 0.983 | relative viability ([20]; first compound 0.6325 µM): 0.942 | relative viability ([20]; first compound 2 µM): 0.582 | relative viability ([21]; first compound 0.02 µM): 0.744 | relative viability ([21]; first compound 0.2 µM): 0.801 | relative viability ([21]; first compound 0.6325 µM): 0.903 | relative viability ([21]; first compound 2 µM): 0.591 | relative viability ([22]; first compound 0.02 µM): 0.571 | relative viability ([22]; first compound 0.6325 µM): 0.677 | relative viability ([22]; first compound 2 µM): 0.386
